Read-outs that look alike come from different tables or passages of the source. Square brackets hold non-standard residues; d marks the D form. Ends that are not written are not given here. Ahx = NCCCCCC(=O)O; βAla = NCCC(=O)O
Key:
[1] = test system: murine colon carcinoma line CT26; experiment: In vivo colon cancer, CT26 subcutaneous tumor, intraperitoneal injections (FIGS. 2, 3); parameters: species or system Balb/c mice
Experimental: (§1) 100,000 tumor cells from the murine colon carcinoma line CT26 were injected subcutaneously (in the right flank) to male Balb/c mice. The transplanted cells give rise to a subcutaneous tumor clearly visible from the outside in just over a week. Using this in vivo tumorigenesis procedure, we conducted three different experiments (described below) whose results are represented in FIGS. 1, 2 and 3.
Administration was performed every 12 hours by means of intraperitoneal injections of 500 μl each containing 30 nmoles of peptide (ACPP-HK2 or ACPP-SCR). […] Every 48 hours the size of the tumors was measured externally, and their volumes calculated.
In this experiment, a double dose of peptides (60 nmoles/injection) was administered compared to the second experiment, again by intraperitoneal injection.

non-tumor tissues [2] = conditions: mouse, in vivo
Description: (§2) At the end of each experiment shown in FIGS. 2, 3 and 4, and described in Example 2, male and female Balb/c mice underwent a complete autopsy with the assistance of an anatomopathologist expert. […] The group of mice not receiving any peptide treatment (NaCl) acts as an additional control.
(§3) List of organs or tissues analyzed: heart, skeletal muscle, kidney, spleen, lung, liver, brain, intestine, pancreas, bone marrow, lymph nodes, thyroid gland, parathyroid glands, and adrenal glands.

[3] = test system: HeLa cervical cancer cell line; experiment: Cell viability after treatment with ACPP-HK2 sequence variants; type: cell-based, human; conditions: between 5 and 50 μM, 18 or 36 hours
Description: FIGS. 9A and 9B report cell viability after treatment of tumor cells (HeLa cervical cancer cell line) at various concentrations and times with the peptides ACPP-HK2 (SEQ ID NO:1), ACPP-HK2 II (SEQ ID) NO: 8), ACPP-HK2 III (SEQ ID NO: 9) and ACPP-HK2 IV (SEQ ID NO:10).

non-tumor tissues [4] = experiment: Autopsy and histological evaluation of internal organs of treated mice
Description: as §2, §3

[5] = test system: murine colon carcinoma line CT26; experiment: In vivo colon cancer, CT26 subcutaneous tumor, injection into the tumors (FIG. 1); parameters: species or system Balb/c mice
Experimental: as §1
At 8 days post-cell inoculation, the mice were divided into three groups (FIG. 1) and saline boluses (NaCl) without any other solute, or containing the active form of ACPP-HK2 resulting from the proteolytic cut (pepHK2, 2 nmol/injection), or finally containing the entire ACPP-HK2 (2 nmol/injection) were injected into the tumors. Each bolus consisted of 20 μl solution and was injected every 12 hours up to 60 hours. 72 hours after the start of the treatment, the mice were sacrificed, and the tumor volume was measured.

[6] = test system: murine breast cancer cell line 4T1; experiment: In vivo breast cancer, 4T1 subcutaneous tumor, intraperitoneal injections (FIG. 4); parameters: species or system mice; conditions: 4T1, intraperitoneal, 60 nmoles every 12 hours up to 60 hours
Experimental: In this experiment (FIG. 4), 200,000 murine breast cancer cell line 4T1 were injected subcutaneously into female mice. At 9 days post-inoculation of the cells, the mice were divided into two experimental groups and 60 nmoles of peptides (ACPP-HK2 or ACPP-SCR) dissolved in 500 μl of saline solution were injected intraperitoneally. The injections followed one the other every 12 hours up to 60 hours and at 72 hours the experiment ended.

MIASHLLAYFFTELN βA RRRRRRRRR PLGLAG Ahx EEEEEEEE (MIASHLLAYFFTELN[βAla]RRRRRRRRRPLGLAG[Ahx]EEEEEEEE) [ACPP-HK2]
tumor volume vs ACPP-SCR control ([1]; 30 nmoles every 12 hours, after 48 and 96 hours): significantly smaller in volume than the control tumors injected with ACPP-SCR
tumor growth ([1]; 60 nmoles/injection every twelve hours up to the sixtieth hour): strongly reduces, up to almost blocking, tumor growth
histological characteristics of formalin-fixed sections of internal organs (non-tumor tissues [2]): without finding any differences among different experimental groups (ACPP-SCR and ACPP-HK2) or any tissue alterations
cell viability [3]: able to decrease cell viability of cancer cells
toxic side effect for non-tumor tissues and the whole organism (non-tumor tissues [4]; expert's conclusion after autopsy and histology): no toxic side effect
tumor growth (tumor volume) ([5]; 2 nmol/injection into the tumors every 12 hours up to 60 hours, measured at 72 hours, vs saline): reduce tumor growth
efficacy on tumor growth, ACPP-HK2 compared with pepHK2 ([5]; 2 nmol/injection into the tumors, 72 hours): more effective
tumor growth [6]: almost blocked
tumor volume vs ACPP-SCR control ([6]; end at 72 hours): significantly smaller in volume than control tumors injected with ACPP-SCR

SHLLAYFFTELN-GRKKRRQRRRG-PLGLAG-Ahx-EEEEEEEE (SHLLAYFFTELNGRKKRRQRRRGPLGLAG[Ahx]EEEEEEEE) [ACPP-HK2 III, variant ACPP-HK2 III of the peptide ACPP-HK2, 38-amino acid peptide]
cell viability [3]: able to decrease cell viability of cancer cells

SHLLAYFFTELN-RRRRRRRRR-PLGLAG-Ahx-EEEEEEEE (SHLLAYFFTELNRRRRRRRRRPLGLAG[Ahx]EEEEEEEE) [ACPP-HK2 II, variant ACPP-HK2 II of the peptide ACPP-HK2, 36-amino acid peptide]
cell viability [3]: able to decrease cell viability of cancer cells

SHLLAYFFTELNHD-RRRRRRRRR-PLGLAG-Ahx-EEEEEEEE (SHLLAYFFTELNHDRRRRRRRRRPLGLAG[Ahx]EEEEEEEE) [ACPP-HK2 IV, variant ACPP-HK2 IV of the peptide ACPP-HK2, 38-amino acid peptide]
cell viability [3]: able to decrease cell viability of cancer cells

VGAHAGEYGAEALER βA RRRRRRRRR PLGLAG Ahx EEEEEEEE (VGAHAGEYGAEALER[βAla]RRRRRRRRRPLGLAG[Ahx]EEEEEEEE) [ACPP-SCR, reference compound]
histological characteristics of formalin-fixed sections of internal organs (non-tumor tissues [4]; mice of the experiments of FIGS. 2, 3 and 4, heart, skeletal muscle, kidney, spleen, lung, liver, brain and others): without finding any differences among different experimental groups (ACPP-SCR and ACPP-HK2) or any tissue alterations

From US12629408B2, “Peptides with anti-tumor activity” (UNIVERSITA' DEGLI STUDI DI PADOVA, priority 2019, dated 2026)
